Patent US9920030B2 (priority 2006, dated 2018)
Like-named read-outs stand apart in the source and are kept apart here.

Experiments:
Format in all cases: in vivo
[1] = test system: Plasmopara vilicola (the causal agent of grape downy mildew); experiment: Test A: grape downy mildew, test suspension sprayed on grape seedlings after inoculation, visual disease rating; conditions: for pest or weed control at 40 ppm / pest or weed control at 10 µg/mL: Plasmopara, 144 h, read-out: Percent Disease Control, Test A
Text: General protocol for preparing test suspensions for Test A-C: The test compounds were first dissolved in acetone in an amount equal to 3% of the final volume and then suspended at the desired concentration (in ppm) in acetone and purified water (50/50 mix by volume) containing 250 ppm of the surfactant Trem® 014 (polyhydric alcohol esters). The resulting test suspensions were then used in Tests A-C. Spraying a 200 ppm test suspension to the point of run-off on the test plants was equivalent to a rate of 500 g/ha.
Grape seedlings were inoculated with a spore suspension of Plasmopara vilicola (the causal agent of grape downy mildew) and incubated in a saturated atmosphere at 20° C. for 24 h. After a short drying period, the test suspension was sprayed to the point of run-off on the grape seedlings, which were then moved to a growth chamber at 20° C. for 5 days, after which time the grape seedling were placed back into a saturated atmosphere at 20° C. for 24 h. Upon removal, visual disease ratings were made.
Results for Tests A-C are given in Table A. In the table, a rating of 100 indicates 100% disease control and a rating of 0 indicates no disease control (relative to the controls). A dash (-) indicates no test results.

[2] = test system: Phytophthora infestans (the causal agent of tomato late blight); experiment: whole plant or invertebrate; conditions: for pest or weed control at 40 ppm / pest or weed control at 10 µg/mL: Phytophthora infestans, 96 h, read-out: Percent Disease Control, Test C
[3] = test system: Phytophthora infestans (the causal agent of tomato late blight); experiment: whole plant or invertebrate; conditions: for pest or weed control at 40 ppm / pest or weed control at 10 µg/mL: Phytophthora infestans, 144 h, read-out: Percent Disease Control, Test B
[4] = compounds without asterisk (application rate not given), 100 = 100% disease control, 0 = no control relative to the controls

## 1-[4-[4-(4,5-dihydro-5-(2-pyridinyl)-3-isoxazolyl)-2-thiazolyl]-1-piperidinyl]-2-[5-methyl-3-(trifluoromethyl)-1H-pyrazol-1-yl]ethanone [Compound 98]
[1]; [4]
  Percent Disease Control, Test A: 99%
[2]; [4]
  Percent Disease Control, Test C: 99%
[3]; [4]
  Percent Disease Control, Test B: 100%

## 1-[4-[4-(4,5-dihydro-5-phenyl-3-isoxazolyl)-2-thiazolyl]-3,6-dihydro-1(2H)-pyridinyl]-2-[5-methyl-3-(trifluoromethyl)-1H-pyrazol-1 yl]ethanone [Compound 217]
[1]; [4]
  Percent Disease Control, Test A: 0%
[2]; [4]
  Percent Disease Control, Test C: 86%
[3]; [4]
  Percent Disease Control, Test B: 95%

## 1-[4-[4-[5-(2-chlorophenyl)-4,5-dihydro-3-isoxazolyl]-2-thiazolyl]-1-piperidinyl]-2-[5-methyl-3-(trifluoromethyl)-1H-pyrazol-1-yl]ethanone [Compound 8]
[1]; [4]
  Percent Disease Control, Test A: 96%
[2]; [4]
  Percent Disease Control, Test C: 99%
[3]; [4]
  Percent Disease Control, Test B: 100%

## 1-[4-[4-[(5R)-4,5-dihydro-5-phenyl-3-isoxazolyl]-2-thiazolyl]-1-piperidinyl]-2-[5-methyl-3-(trifluoromethyl)-1H-pyrazol-1-yl]ethanone [Compound 3]
[1]; [4]
  Percent Disease Control, Test A: 52%
[2]; [4]
  Percent Disease Control, Test C: 0%
[3]; [4]
  Percent Disease Control, Test B: 47%

## 2-[5-chloro-3-(trifluoromethyl)-1H-pyrazol-1-yl]-1-[4-[4-(4,5-dihydro-5-phenyl-3-isoxazolyl)-2-thiazolyl]-1-piperidinyl]ethanone [Compound 107]
[1]; [4]
  Percent Disease Control, Test A: 97%
[2]; [4]
  Percent Disease Control, Test C: 99%
[3]; [4]
  Percent Disease Control, Test B: 100%

## Cc1cc(C(F)(F)F)nn1CC(=O)N1CCC(c2nc(C3=NOC4(CCCCC4c4ccccc4)C3)cs2)CC1 (mixture of isomers) [Compound 170]
[1]; * tested at 40 ppm
  Percent Disease Control, Test A: 99%
[2]; * tested at 40 ppm
  Percent Disease Control, Test C: 93%
[3]; * tested at 40 ppm
  Percent Disease Control, Test B: 100%

## Cc1cc(C(F)(F)F)nn1CC(=O)N1CCC(c2nc(C3=NOC4(CCCC(c5ccccc5)C4)C3)cs2)CC1 (mixture of isomers) [Compound 171]
[1]; * tested at 40 ppm
  Percent Disease Control, Test A: 99%
[2]; * tested at 40 ppm
  Percent Disease Control, Test C: 98%
[3]; * tested at 40 ppm
  Percent Disease Control, Test B: 100%

## Cc1cc(C(F)(F)F)nn1CC(=O)N1CCC(c2nc(C3=NOC(c4cccc(Cl)c4)C3)cs2)CC1 (racemic) [Compound 17]
[1]; * tested at 40 ppm
  Percent Disease Control, Test A: 100%
[2]; * tested at 40 ppm
  Percent Disease Control, Test C: 99%
[3]; * tested at 40 ppm
  Percent Disease Control, Test B: 99%

## Cc1cc(C(F)(F)F)nn1CC(=O)N1CCC(c2nc(C3=NOC(Cc4ccccc4)C3)cs2)CC1 (racemic) [Compound 24]
[1]; [4]
  Percent Disease Control, Test A: 99%
[2]; [4]
  Percent Disease Control, Test C: 93%
[3]; [4]
  Percent Disease Control, Test B: 100%

## Cc1cc(C(F)(F)F)nn1CC(=O)N1CCC(c2nc(C3=NOC(CCC(C)C)C3)cs2)CC1 (racemic) [Compound 27]
[1]; [4]
  Percent Disease Control, Test A: 100%
[2]; [4]
  Percent Disease Control, Test C: 98%
[3]; [4]
  Percent Disease Control, Test B: 100%

## Cc1cc(C(F)(F)F)nn1CC(=O)N1CCC(c2nc(C3=NOC(CC(C)(C)C)C3)cs2)CC1 (racemic) [Compound 28]
[1]; [4]
  Percent Disease Control, Test A: 99%
[2]; [4]
  Percent Disease Control, Test C: 94%
[3]; [4]
  Percent Disease Control, Test B: 100%

## Cc1cc(C(F)(F)F)nn1CC(=O)N1CCC(c2nc(C3=NO[C@@H](N4C(=O)c5ccccc5C4=O)C3)cs2)CC1 (racemic) [Compound 129]
[1]; * tested at 40 ppm
  Percent Disease Control, Test A: 99%
[2]; * tested at 40 ppm
  Percent Disease Control, Test C: 99%
[3]; * tested at 40 ppm
  Percent Disease Control, Test B: 100%

## Cc1cc(C(F)(F)F)nn1CC(=O)N1CCC(c2nc(C3=NO[C@@H](c4c(Cl)cccc4Cl)C3)cs2)CC1 (racemic) [Compound 135, 1-[4-[4-[(5R)-5-(2,6-dichlorophenyl)-4,5-dihydro-3-isoxazolyl]-2-thiazolyl]-1-piperidinyl]-2-[5-methyl-3-(trifluoromethyl)-1H-pyrazol-1-yl]ethanone]
[1]; * tested at 40 ppm
  pest or weed control at 40 ppm: 100%
[2]
  pest or weed control at 40 ppm: 99%
[3]
  pest or weed control at 40 ppm: 100%

## COc1cc(OC)c([C@H]2CC(c3csc(C4CCN(C(=O)Cn5nc(C(F)(F)F)cc5C)CC4)n3)=NO2)c(OC)c1 (racemic) [Compound 155, 1-[4-[4-[(5R)-4,5-dihydro-5-(2,4,6-trimethoxyphenyl)-3-isoxazolyl]-2-thiazolyl]-1-piperidinyl]-2-[5-methyl-3-(trifluoromethyl)-1H-pyrazol-1-yl]ethanone]
[1]; * tested at 40 ppm
  pest or weed control at 40 ppm: 100%
[2]
  pest or weed control at 40 ppm: 99%
[3]
  pest or weed control at 40 ppm: 100%

## Cc1cc(C)n(CC(=O)N2CCC(c3nc(C4=NO[C@]5(CCCc6ccccc65)C4)cs3)CC2)n1 (racemic) [Compound 164, 1-[4-[4-[(1′R)-3′,4′-dihydrospiro[isoxazole-5(4H),1′(2′H)-naphthalen]-3-yl]-2-thiazolyl]-1-piperidinyl]-2-(3,5-dimethyl-1H-pyrazol-1-yl)ethanone]
[1]; ** tested at l0 ppm
  pest or weed control at 10 µg/mL: 99%
[2]
  pest or weed control at 10 µg/mL: 99%
[3]
  pest or weed control at 10 µg/mL: 100%

## O=C(Cn1nc(C(F)(F)F)cc1C(F)(F)F)N1CCC(c2nc(C3=NO[C@]4(CCCc5ccccc54)C3)cs2)CC1 (racemic) [Compound 229, 2-[3,5-bis(trifluoromethyl)-1H-pyrazol-1-yl]-1-[4-[4-[(1′R)-3′,4′-dihydrospiro[isoxazole-5(4H), 1′(2′H)-naphthalen]-3-yl]-2-thiazolyl]-1-piperidinyl]ethanone]
[1]; ** tested at l0 ppm
  pest or weed control at 10 µg/mL: 100%
[2]
  pest or weed control at 10 µg/mL: 100%
[3]
  pest or weed control at 10 µg/mL: 100%

## O=C(Cn1nc(C(F)(F)F)cc1Cl)N1CCC(c2nc(C3=NO[C@]4(CCCc5ccccc54)C3)cs2)CC1 (racemic) [Compound 230, 2-[5-chloro-3-(trifluoromethyl)-1H-pyrazol-1-yl]-1-[4-[4-[(1′R)-3′,4′-dihydrospiro[isoxazole-5(4H), 1′(2′H)-naphthalen]-3-yl]-2-thiazolyl]-1-piperidinyl]ethanone]
[1]; ** tested at l0 ppm
  pest or weed control at 10 µg/mL: 100%
[2]
  pest or weed control at 10 µg/mL: 100%
[3]
  pest or weed control at 10 µg/mL: 100%

## O=C(Cn1nc(C(F)(F)F)cc1C(F)(F)F)N1CCC(c2nc(C3=NO[C@]4(CCc5ccccc54)C3)cs2)CC1 (racemic) [Compound 231, 2-[3,5-bis(trifluoromethyl)-1H-pyrazol-1-yl]-1-[4-[4-[(1R)-2,3-dihydrospiro[1H-indene-1,5′(4′1H)-isoxazol]-3′-yl]-2-thiazolyl]-1-piperidinyl]ethanone]
[1]; ** tested at l0 ppm
  Percent Disease Control, Test A: 100%
[2]; ** tested at l0 ppm
  Percent Disease Control, Test C: 100%
[3]; ** tested at l0 ppm
  Percent Disease Control, Test B: 100%

## Cc1cccc(-c2csc(C3CCN(C(=O)Cn4nc(C(F)(F)F)cc4C)CC3)n2)c1 [Compound 149]
[1]; [4]
  Percent Disease Control, Test A: 99%
[3]; [4]
  Percent Disease Control, Test B: 97%

## COc1ccc(-c2csc(C3CCN(C(=O)Cn4nc(C(F)(F)F)cc4C)CC3)n2)cc1 [Compound 150]
[1]; [4]
  Percent Disease Control, Test A: 99%
[3]; [4]
  Percent Disease Control, Test B: 100%

## Cc1ccc(-c2csc(C3CCN(C(=O)Cn4nc(C(F)(F)F)cc4C)CC3)n2)cc1 [Compound 151]
[1]; [4]
  Percent Disease Control, Test A: 100%
[3]; [4]
  Percent Disease Control, Test B: 99%

## COc1cccc(-c2csc(C3CCN(C(=O)Cn4nc(C(F)(F)F)cc4C)CC3)n2)c1 [Compound 152]
[1]; [4]
  Percent Disease Control, Test A: 91%
[3]; [4]
  Percent Disease Control, Test B: 89%

## COc1ccccc1-c1csc(C2CCN(C(=O)Cn3nc(C(F)(F)F)cc3C)CC2)n1 [Compound 153]
[1]; [4]
  Percent Disease Control, Test A: 73%
[3]; [4]
  Percent Disease Control, Test B: 0%
